Test results: paper PMC6017603, “Speeding Up the Identification of Cystic Fibrosis Transmembrane Conductance Regulator-Targeted Drugs: An Approach Based on Bioinformatics Strategies and Surface Plasmon Resonance” (Molecules : A Journal of Synthetic Chemistry and Natural …, 2018)

B1: K8: keratin 8, known CFTR chaperone, purchased recombinant protein (protein, UniProt P05787 1-483, looked up)
Keratin, type II cytoskeletal …: MSIRVTQKSYKVSTSGPRAFSSRSYTSGPGSRISSSSFSRVGSSNFRGGLGGGYGGASGMGGITAVTVNQSLLSPLVLEVDPNIQAVRTQEKEQIKTLNNKFASFIDKVRFLEQQNKMLETKWSLLQQQKTARSNMDNMFESYINNLRRQLETLGQEKLKLEAELGNMQGLVEDFKNKYEDEINKRTEMENEFVLIKKDVDEAYMNKVELESRLEGLTDEINFLRQLYEEEIRELQSQISDTSVVLSMDNSRSLDMDSIIAEVKAQYEDIANRSRAEAESMYQIKYEELQSLAGKHGDDLRRTKTEISEMNRNISRLQAEIEGLKGQRASLEAAIADAEQRGELAIKDANAKLSELEAALQRAKQDMARQLREYQELMNVKLALDIEIATYRKLLEGEESRLESGMQNMSIHTKTTSGYAGGLSSAYGGLTSPGLSYSLGSSFGSGAGSSSFSRTSSSRAVVVKKIETRDGKLVSESSDVLPK

Assays:
ΔF508-NBD1 = target: T1, ΔF508-NBD1 (Mus musculus, UniProt P26361, DEL508-508); assay: SPR direct binding to sensor chip-immobilized ΔF508-NBD1; parameters: species or system murine; conditions: for binding to ΔF508-NBD1 (SPR): increasing concentrations injected over immobilized ΔF508-NBD1; for Kd / RU of ligand bound to ΔF508-NBD1 at equilibrium (maximal RU): SPR; for Kd: Scatchard's plot analysis of equilibrium binding data, mean ± S.D. of two-three analyses, PBS, 0.05% P20, 5% DMSO, pH 7.4, 25 °C; for RU of ligand bound to ΔF508-NBD1 at equilibrium (maximal RU): mean ± s.d. of two-three separate analyses
T1 construct: Murine WT NBD1 and ΔF508-NBD1 were obtained from CFTR Folding Consortium; purchased CFTR Folding Consortium (obtained, not a commercial vendor)
Procedure: SPR measurements were performed on a BIAcore X-100 instrument (GE-Healthcare, Milwaukee, WI, USA), using research-grade CM5 carboxyl-methyl-dextran–coated sensor chips (GE-Healthcare). The murine ΔF508-NBD1 was resuspended at 20 µg/mL in 10 mM sodium acetate pH 4.0 and allowed to react with the first flow cell of a CM5 sensor chip pre-activated with 50 μL of 0.2 M EDC and 0.05 M NHS and deactivated by injection of HCl–ethanolamine. This procedure led to the immobilization of 11,000 RU, equal to approximately 400 fmol/mm^2 of protein. Similar results were obtained for the injection of BSA (20 µg/mL) onto the second flow cell of each sensor chip, used as a negative control and for blank subtraction. The appropriate immobilization of ΔF508-NBD1 was checked by injecting increasing concentrations of K8 in PBS, 0.05% surfactant P20 and 5% DMSO, pH 7.4 over the sensor chip for 90 s at 10 μL/min, 25 °C and then washed until dissociation was observed. The inclusion of 5% DMSO in the running buffer (not necessary for protein-protein interaction analysis) and the short association time were chosen to validate ΔF508-NBD1 binding availability in the experimental conditions used for the subsequent analysis of the compounds (see below).
For the evaluation of their capacity to directly bind to ΔF508-NBD1, increasing concentrations of the various compounds of the data-set were resuspended in PBS, 0.05% surfactant P20 and 5% DMSO, pH 7.4, injected over ΔF508-NBD1 or BSA surfaces for 90 s at 10 μL/min, 25 °C and then washed until dissociation was observed. Steady state analysis were performed by fitting the proper form of Scatchard’s equation for the plot of the bound RU at equilibrium versus the compound concentration in solution. When saturation binding was reached, Kd values were calculated. In the case no saturation could be reached due the limited solubility of the compound under test, the software provided a Kd value expected on the bases of the curve’s trend.

NBD1 = conditions: cited from earlier work
[1] = target: T2, K8/ΔF508-NBD1 interaction (Mus musculus, UniProt P26361, DEL508-508); assay: SPR injection of compounds onto K8-saturated ΔF508-NBD1 surface; format: binding, murine; conditions: compounds at 150 μM; K8 1 µM saturating
T2 construct: Murine WT NBD1 and ΔF508-NBD1 were obtained from CFTR Folding Consortium; purchased ΔF508-NBD1: CFTR Folding Consortium (obtained); K8: Pro-Spec-Tany TechnoGene Ltd
Procedure: In a further series of experiments, a saturating amount of K8 (1 µM) was injected on the ΔF508-NBD1 surface and allowed to reach an equilibrium binding. Then, the various compounds of the data-set (150 µM) were injected and their capacity to affect the binding of K8 to ΔF508-NBD1 evaluated.

[2] = target: T3, ΔF508-NBD1/K8 interaction (Mus musculus, UniProt P26361, DEL508-508); assay: SPR competition assay: ΔF508-NBD1 binding to immobilized K8 in the presence of compounds; parameters: species or system murine; conditions: ΔF508-NBD1 600 nM, compound 500 μM; for ΔF508-NBD1 bound to immobilized K8 at equilibrium in the presence of compound: 5% DMSO, ΔF508-NBD1 alone 35 RU
T3 construct: Murine WT NBD1 and ΔF508-NBD1 were obtained from CFTR Folding Consortium; purchased ΔF508-NBD1: CFTR Folding Consortium (obtained); K8: Pro-Spec-Tany TechnoGene Ltd
Procedure: K8 was used since, as a representative ΔF508-CFTR chaperones, has been repeatedly used for SPR studies and its binding site in ΔF508-CFTR has been mapped. To perform competition assays for the binding to ΔF508-NBD1 between the various compounds and K8, the latter was resuspended at 20 µg/mL in 10 mM sodium acetate pH 4.0 and allowed to react with the first flow cell of a CM5 sensor chip pre-activated with 50 μL of 0.2 M EDC and 0.05 M NHS and deactivated by injection of HCl–ethanolamine. This procedure led to the immobilization of 7800 RU of the protein, (equal to approximately 146 fmol/mm^2). Similar results were obtained for the injection of BSA (10 μg/mL) onto the second flow cell of each sensor chip, that was then used as a negative control and for blank subtraction. ΔF508-NBD1 (at 600 nM) in the absence or in the presence of the various compounds (all at 500 μM) in 0.05% surfactant P20 and 5% DMSO, pH 7.4, was injected over the K8 or BSA surfaces for 90 s at 10 μL/min, 25 °C and then washed until dissociation was observed.

T2 sequence (P26361 with tags, fused parts or gaps DEL508-508 limits assumed): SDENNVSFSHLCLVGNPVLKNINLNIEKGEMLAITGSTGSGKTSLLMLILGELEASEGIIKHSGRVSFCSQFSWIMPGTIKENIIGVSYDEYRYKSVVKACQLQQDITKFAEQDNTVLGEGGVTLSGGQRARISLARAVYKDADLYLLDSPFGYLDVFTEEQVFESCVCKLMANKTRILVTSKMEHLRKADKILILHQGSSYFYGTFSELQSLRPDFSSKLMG
T1 sequence (P26361 with tags, fused parts or gaps DEL508-508 limits assumed): as above
T3 sequence (P26361 with tags, fused parts or gaps DEL508-508 limits assumed): as above

Molecule | binding to ΔF508-NBD1 (SPR) (ΔF508-NBD1) | effect of compound injection on K8-saturated ΔF508-NBD1 surface [1] | Kd (ΔF508-NBD1) | RU of ligand bound to ΔF508-NBD1 at equilibrium (maximal RU) (ΔF508-NBD1) | also measured
COc1ccc(Cl)cc1Nc1nc(-c2sc(NC(=O)c3ccccc3)nc2C)cs1 [C4a, reference compound] | do not bind | – | – | – | binding to NBD1 (NBD1): does not bind to NBD1
CSc1cccc(Nc2nc(-c3ccc(Br)cc3)cs2)c1 [Compound 4] | – | inability of compounds 4 and 6 to alter the binding of K8 | 99.3 ± 14.5 µM | 32.0 ± 4.2 RU | inhibition at 500 µM [2]: 50%
CSc1cccc(Nc2nc(-c3cccc(Cl)c3)cs2)c1 [Compound 5] | – | increase of bound RU | 40.3 ± 2.5 µM | 13.0 ± 1.4 RU | ΔF508-NBD1 bound to immobilized K8 at equilibrium in the presence of compound [2]: 45 RU
CSc1cccc(Nc2nc(-c3ccc4[nH]c(=O)oc4c3)cs2)c1 [Compound 6] | – | inability of compounds 4 and 6 to alter the binding of K8 | 198 ± 4.5 µM | 114.0 ± 5.6 RU | effect on the ΔF508-NBD1/K8 interaction [2]: ineffective
CSc1cccc(Nc2nc(-c3coc4ccccc34)cs2)c1 [Compound 7] | do not bind | – | – | 0 to 4 RU | –
CC(C)(C)c1cc(C(C)(C)C)c(NC(=O)c2c[nH]c3ccccc3c2=O)cc1O [VX770, Ivacaftor, reference compound] | do not bind | – | – | – | binding to NBD1 (NBD1): does not bind to NBD1
Cc1ccc(NC(=O)C2(c3ccc4c(c3)OC(F)(F)O4)CC2)nc1-c1cccc(C(=O)O)c1 [VX809, Lumacaftor, reference compound] | – | increase of bound RU | 24.2 ± 6.2 µM | 163.7 ± 23.7 RU | ΔF508-NBD1 bound to immobilized K8 at equilibrium in the presence of compound [2]: 68 RU
B1 | – | – | – | – | binding of K8 to immobilized ΔF508-NBD1 (ΔF508-NBD1; K8 600 nM, BSA surface as negative control): specifically binds
